Test: Concentration of gas dissolved in cell culture liquid or pure water after bubbling, measured by gas chromatography
Format: physicochemical
Conditions: for Correction coefficient α: ratio of average gas concentrations in cell culture liquid and pure water
Method: The gas shown in Table 1 was bubbled at 20 mL/min for 1 minute in 5 mL of a cell culture medium (liquid containing 6.4 g/L of sodium chloride, 4.7 g/L of D-glucose, 3.7 g/L of sodium bicarbonate, L-lysine hydrochloride, 0.84 g/L of L-arginine hydrochloride, 0.58 g/L of L-glutamine, and 0.3 g/L of calcium chloride) or in 5 mL of purified water, at a liquid temperature of 23° C.; and dissolved. Subsequently, the concentration of a gas dissolved in the cell culture liquid or pure water was measured by gas chromatography (Shimadzu Corporation). Each measurement was repeated three times, and the average gas concentration was calculated. The correction coefficient α was then obtained by dividing the average gas concentration in the cell culture liquid by the average gas concentration in the pure water.
At a later date, the same measurements as above were performed, and the correction coefficient was calculated in the same manner.

[1] = Table 1, gas bubbled at 20 mL/min for 1 minute in 5 mL cell culture medium, liquid temperature 23° C., average of three measurements
[2] = Table 1, gas bubbled at 20 mL/min for 1 minute in 5 mL purified water, liquid temperature 23° C., average of three measurements
[3] = Table 2, repeated at a later date
[4] = Table 2, same measurements repeated at a later date, cell culture medium, 23° C.
[5] = Table 2, same measurements repeated at a later date, purified water, 23° C.

Row | SMILES | Gas concentration, Cell culture liquid [1] [ppm] | Gas concentration, Pure water [2] [ppm] | Correction coefficient α (Table 1) | Correction coefficient α [3] | Gas concentration, Cell culture liquid [4] [ppm] | Gas concentration, Pure water [5] [ppm]
1 | C=C(F)C(F)(F)F [CF3—CF═CH2] | 262 | 331 | 1.26 | 1.25 | 288 | 360
2 | FCF [CH2F2] | 2972 | 4140 | 1.39 | 1.36 | 2701 | 3673
3 | FCC(F)(F)F [CH2F—CF3] | 529 | 656 | 1.24 | 1.26 | 599 | 755
4 | FC(F)Cl [CHF2Cl] | 1785 | 2399 | 1.34 | 1.33 | 1820 | 2421
